{"source": "patent US8883740B2", "about": "“Peptides, compositions, and uses thereof” (Fundacao de Amparoa Pesquisa do Estado de Sao Paulo-Fapesp, priority 2008, dated 2014)", "key": {"[1]": {"system": "endothelial cells (HUVEC)", "assay": "Cell viability, MTT colorimetric assay under reduced serum", "format": "cell-based", "details": "5 μg/ml; 48 hours; RPMI 1640 with 1% FBS; vs control without peptide", "description": "Tests for cell viability (% viability) was realized utilizing reduced serum conditions and MTT (3-[4,5-Dimethylthiazol-2-yl]-2,5-Diphenyltetrazolium bromide) colorometric assay (Mosmann, 1983). The results are illustrated in FIGS. 1 to 3.\nFIG. 1 illustrates the effect of peptides (5 μg/ml) on cell viability (% viability) of endothelial cells (HUVEC) when incubated together for 48 hours in RPMI 1640 with 1% FBS. The control has cells incubated in RPMI 1640 with 1% FBS (with no peptide).\nFIG. 2 illustrates the effect of different concentrations of CNF011.05B on cell viability (% viability) of endothelial cells when incubated together for 120 hours in RPMI supplemented with 1% FBS.\nFIG. 3 illustrates the effect of different concentrations of CNF011.05D on cell viability (% viability) of endothelial cells when incubated together for 48 hours in RPMI supplemented with 1% FBS."}, "Neutrophils [2]": {"system": "Neutrophils", "assay": "Neutrophil viability by flow cytometry (annexin V / propidium iodide), reduced serum", "format": "cell-based, Wistar Rats", "details": "reduced serum medium (1%), 24 hours", "description": "(§1) Neutrophils or primary cultured endothelial cells from Wistar Rats were cultured in reduced serum medium (1%) in presence of CNF011.05D (3.0 μm/mL) and/or […] L-NAME, an inhibitor of NO synthase (and accordingly, an inhibitor of NO and resulting metabolite NO2 production). After 24 hours, cell viability was measured using flow cytometry analysis with FITC annexin V (1:500) and propidium iodide (10 μl of 50 mg/ml). The viability of both neutrophils (FIG. 4) and primary endothelial cells (FIG. 5) was increased with the peptide CNF011.05D alone, and this increase was diminished in presence of L-NAME."}, "[3]": {"system": "primary cultured endothelial cells", "assay": "Primary endothelial cell viability by flow cytometry (annexin V / propidium iodide), reduced serum", "format": "cell-based, Wistar Rats", "details": "reduced serum medium (1%), 24 hours", "description": "as §1"}, "Neutrophils [4]": {"system": "Neutrophils", "assay": "NO2 production by neutrophils, Griess reaction", "format": "cell-based, Wistar Rats", "details": "1.5 μg/ml; 18 hours; absorbance at 550 nm", "description": "Neutrophils were cultured for 18 hours with CNF011.05D (1.5 μg/ml), and production of NO metabolite NO2 secreted into culture was assessed by use of the Griess reaction, and measurement of absorbance at 550 nm."}, "Human fibroblasts [5]": {"system": "Human fibroblasts", "assay": "Production of fibronectin by fibroblasts, indirect immunofluorescence", "format": "cell-based", "details": "0.35 μg; 4 days; vs saline; p<0.001", "description": "(§2) Human fibroblasts were acquired from ear lobe skin fragments (0.5×0.5 cm) from 5 normal African-Brazilian female donors, with age ranging from 10 to 40 years old, respectively called 2/05, 3/05, 4/05, 6/05 and 8/05. The donors were submitted to excisional biopsies in a surgical environment after free voluntary consent.\n(§3) Cells from the 6th subculture were placed in sterile culture plates and incubated with CNF011.05D at concentrations of 0.35 μg and 5 μg in culture medium for 4 days. The control group consisted of fibroblasts cultured under the same conditions, in which saline solution (a solvent of CNF011.05D) was added in the place of CNF011.05D.\n(§4) Indirect immunofluorescence was performed using (1) Anti-fibronectin (cellular) mAb OR anti-human tenascin mAb (Sigma-USA); and (2) Alexa Fluor 488 (Molecular Probes-USA).\nSamples tested are FBN-CN (cells treated with saline), FBN-0.35 (cells treated with CNF011.05D at 0.35 μg), and FBN-5 μg (cells treated with CNF011.05D at 5 μg)."}, "Human fibroblasts [6]": {"system": "Human fibroblasts", "assay": "Production of tenascin by fibroblasts, indirect immunofluorescence", "format": "cell-based", "details": "0.35 μg; 4 days; vs saline; p<0.001", "description": "as §2, §3, §4\nSamples tested are CN (cells treated with saline), TN-0.35 (cells treated with CNF011.05D at 0.35 μg), and TN-5 μg (cells treated with CNF011.05D at 5 μg)."}, "collagen in the dermis": {"system": "collagen in the dermis", "assay": "Production of collagen in the dermis after subcutaneous doses", "format": "in vivo", "excerpt": "Levels of collagen were examined after different administrations of CNF011.05D: a single subcutaneous dose, two subcutaneous doses, and four subcutaneous doses."}, "punch wounds [7]": {"system": "punch wounds", "assay": "Wound healing in rats, 6 mm punch wounds", "format": "in vivo, Wistar rats", "description": "Size and microscopic appearance of punch wounds was assessed in rats after a single dose of CNF011.05D. The rats were Wistar rats of 6-to-8 weeks of age, which were anesthesized and operated on the dorsal side of their backs. Following clipping of hair and scrub sterilization, wounds were made in each rat using a 6 mm biopsy punch. Following wounding and drying with sterile gauze, wounds were subjected to (1) bandaging (Standard Care) or (2) application of CNF011.05D (235 nM in saline) followed by bandaging. Wounds evaluated at Days 3, 7, 14, and 21 were assessed by veterinarians and documented as to whether the wound was healing normally for the day post-wounding, and the size of the wound in cm^2."}, "punch wounds [8]": {"system": "punch wounds", "assay": "Wound healing in pigs, 8 mm punch wounds, granulation tissue filling", "format": "in vivo, Domestic Yorkshire Crossbred pigs", "description": "Levels of granulation tissue formation—a marker of the proliferative phase of Healing (Cascade)—were assessed in punch wounds after daily administrations of CNF011.05D or positive control (Bacaplermin gel 0.01%). The wounded animals were Domestic Yorkshire Crossbred pigs of 20 weeks of age, which were anesthesized and operated on the dorsal side of their backs. Following clipping of hair and scrub sterilization, 8 full thickness wounds were made in each pig using an 8 mm biopsy punch.\nFollowing wounding and drying with sterile gauze, the wounds were subjected to application with different treatments (see Table 5 and 6) followed by bandaging. Long-term postoperative monitoring included daily inspection of the surgical sites for 14 days. The daily inspection included cleansing of the wounds, reapplication of the same treatments—Standard Care or Positive Control or CNF011.05D (1×) or CNF011.05D (100×)—followed by rebandaging. […]"}, "[9]": {"details": "CNF011.05D 3.0 μm/mL plus 1M L-NAME"}, "[10]": {"details": "1x: 1 ml at 1.57 μg/ml in saline, daily, six wounds, Day 5"}, "[11]": {"details": "1x: 1 ml at 1.57 μg/ml in saline, daily, six wounds, Day 7"}, "[12]": {"details": "100x: 1 ml at 157 μg/ml in saline, daily, six wounds, Day 7"}}, "note": "Where “and” joins values, the source holds several entries; their conditions need not be identical. Equal values may be shown once.", "data": [{"sequence": "YAIGYSCKDYK [CNF011.05D]", "values": [{"measurement": "cell viability (% viability)", "setting": "[1]", "result": "augment"}, {"measurement": "increase of viability of neutrophils in presence of L-NAME", "setting": "Neutrophils [2]; [9]", "result": "diminished"}, {"measurement": "viability of neutrophils", "setting": "Neutrophils [2]; CNF011.05D alone 3.0 μm/mL", "result": "increased"}, {"measurement": "increase of viability of primary endothelial cells in presence of L-NAME", "setting": "[3]; [9]", "result": "diminished"}, {"measurement": "viability of primary endothelial cells", "setting": "[3]; CNF011.05D alone 3.0 μm/mL", "result": "increased"}, {"measurement": "production of NO2", "setting": "Neutrophils [4]", "result": "increases"}, {"measurement": "production of fibronectin by fibroblasts", "setting": "Human fibroblasts [5]", "result": "significant enhancement"}, {"measurement": "tenascin production by fibroblasts", "setting": "Human fibroblasts [6]", "result": "significant difference"}, {"measurement": "Treated Skin Collagen (%)", "setting": "collagen in the dermis; four subcutaneous doses 0.30 μg (total 1.20), 4 weeks after dose", "result": "37.60% and 34.94%"}, {"measurement": "Treated Skin Collagen (%)", "setting": "collagen in the dermis; single subcutaneous dose 0.30 μg, 1 week after dose", "result": "41.20% and 57.15%"}, {"measurement": "Treated Skin Collagen (%)", "setting": "collagen in the dermis; single subcutaneous dose 0.30 μg, 2 weeks after dose", "result": "43.78% and 39.20%"}, {"measurement": "Treated Skin Collagen (%)", "setting": "collagen in the dermis; single subcutaneous dose 0.30 μg, 12 weeks after dose", "result": "29.57% and 27.22%"}, {"measurement": "Treated Skin Collagen (%)", "setting": "collagen in the dermis; two subcutaneous doses 0.30 μg one week apart (total 0.60), 2 weeks after dose", "result": "44.19% and 37.91%"}, {"measurement": "Treated Skin Collagen (%)", "setting": "collagen in the dermis; two subcutaneous doses 0.30 μg one week apart (total 0.60), 12 weeks after dose", "result": "39.23% and 47.33%"}, {"measurement": "Day 3 Size of punch wounds", "setting": "punch wounds [7]; 235 nM in saline, single dose, then bandaging, Day 3, 8 rats per timepoint", "result": 0.200, "unit": "cm^2"}, {"measurement": "Day 7 Size of punch wounds", "setting": "punch wounds [7]; 235 nM in saline, single dose, then bandaging, Day 7, 8 rats per timepoint", "result": 0.084, "unit": "cm^2"}, {"measurement": "Day 14 Size of punch wounds", "setting": "punch wounds [7]; 235 nM in saline, single dose, then bandaging, Day 14, 8 rats per timepoint", "result": 0.053, "unit": "cm^2"}, {"measurement": "Day 21 Size of punch wounds", "setting": "punch wounds [7]; 235 nM in saline, single dose, then bandaging, Day 21, 8 rats per timepoint", "result": "Scar **"}, {"measurement": "scar size and color", "setting": "punch wounds [7]; 21 days, in comparison to Standard Care (negative control)", "result": "scars of reduced size and color"}, {"measurement": "Granulation Tissue Filling No (wounds)", "setting": "punch wounds [8]; 1x: 1 ml at 1.57 μg/ml in saline, daily, six wounds, Day 1", "result": 6}, {"measurement": "Granulation Tissue Filling No (wounds)", "setting": "punch wounds [8]; [10]", "result": 3}, {"measurement": "Granulation Tissue Filling Yes (wounds)", "setting": "punch wounds [8]; [10]", "result": 3}, {"measurement": "Granulation Tissue Filling No (wounds)", "setting": "punch wounds [8]; [11]", "result": 2}, {"measurement": "Granulation Tissue Filling Yes (wounds)", "setting": "punch wounds [8]; [11]", "result": 4}, {"measurement": "Granulation Tissue Filling Yes (wounds)", "setting": "punch wounds [8]; 1x: 1 ml at 1.57 μg/ml in saline, daily, six wounds, Day 10", "result": 6}, {"measurement": "Granulation Tissue Filling Yes (wounds)", "setting": "punch wounds [8]; 1x: 1 ml at 1.57 μg/ml in saline, daily, six wounds, Day 14", "result": 6}, {"measurement": "Granulation Tissue Filling No (wounds)", "setting": "punch wounds [8]; 1x: 1 ml ointment at 1.57 μg/ml in Hydroxyethyl cellulose/Glycerin (20%/80%), two wounds, Day 1", "result": 2}, {"measurement": "Granulation Tissue Filling Yes (wounds)", "setting": "punch wounds [8]; 1x: 1 ml ointment at 1.57 μg/ml in Hydroxyethyl cellulose/Glycerin (20%/80%), two wounds, Day 5", "result": 2}, {"measurement": "Granulation Tissue Filling Yes (wounds)", "setting": "punch wounds [8]; 1x: 1 ml ointment at 1.57 μg/ml in Hydroxyethyl cellulose/Glycerin (20%/80%), two wounds, Day 7", "result": 2}, {"measurement": "Granulation Tissue Filling Yes (wounds)", "setting": "punch wounds [8]; 1x: 1 ml ointment at 1.57 μg/ml in Hydroxyethyl cellulose/Glycerin (20%/80%), two wounds, Day 10", "result": 2}, {"measurement": "Granulation Tissue Filling Yes (wounds)", "setting": "punch wounds [8]; 1x: 1 ml ointment at 1.57 μg/ml in Hydroxyethyl cellulose/Glycerin (20%/80%), two wounds, Day 14", "result": 2}, {"measurement": "Granulation Tissue Filling No (wounds)", "setting": "punch wounds [8]; 100x: 1 ml at 157 μg/ml in saline, daily, six wounds, Day 1", "result": 6}, {"measurement": "Granulation Tissue Filling No (wounds)", "setting": "punch wounds [8]; 100x: 1 ml at 157 μg/ml in saline, daily, six wounds, Day 5", "result": 6}, {"measurement": "Granulation Tissue Filling No (wounds)", "setting": "punch wounds [8]; [12]", "result": 5}, {"measurement": "Granulation Tissue Filling Yes (wounds)", "setting": "punch wounds [8]; [12]", "result": 1}, {"measurement": "Granulation Tissue Filling Yes (wounds)", "setting": "punch wounds [8]; 100x: 1 ml at 157 μg/ml in saline, daily, six wounds, Day 10", "result": 6}, {"measurement": "Granulation Tissue Filling Yes (wounds)", "setting": "punch wounds [8]; 100x: 1 ml at 157 μg/ml in saline, daily, six wounds, Day 14", "result": 6}, {"measurement": "Granulation Tissue Filling No (wounds)", "setting": "punch wounds [8]; 100x: 1 ml ointment at 157 μg/ml in Hydroxyethyl cellulose/Glycerin (20%/80%), two wounds, Day 1", "result": 2}, {"measurement": "Granulation Tissue Filling Yes (wounds)", "setting": "punch wounds [8]; 100x: 1 ml ointment at 157 μg/ml in Hydroxyethyl cellulose/Glycerin (20%/80%), two wounds, Day 5", "result": 2}, {"measurement": "Granulation Tissue Filling Yes (wounds)", "setting": "punch wounds [8]; 100x: 1 ml ointment at 157 μg/ml in Hydroxyethyl cellulose/Glycerin (20%/80%), two wounds, Day 7", "result": 2}, {"measurement": "Granulation Tissue Filling Yes (wounds)", "setting": "punch wounds [8]; 100x: 1 ml ointment at 157 μg/ml in Hydroxyethyl cellulose/Glycerin (20%/80%), two wounds, Day 10", "result": 2}, {"measurement": "Granulation Tissue Filling Yes (wounds)", "setting": "punch wounds [8]; 100x: 1 ml ointment at 157 μg/ml in Hydroxyethyl cellulose/Glycerin (20%/80%), two wounds, Day 14", "result": 2}]}, {"sequence": "APLWILSTDYDNYAIGYSC [CNF011.05B]", "values": [{"measurement": "cell viability (% viability)", "setting": "[1]", "result": "augment"}]}]}
